Earlier results, collected in US7771757B2, “Nasal irrigation solutions and methods of using same” (Himalayan International Institute of Yoga Science and …, priority 2002, dated 2010).

Columns and labels:
common cold = settings: variously administered forms; in many cases

## zinc
Common cold
  reduction of the duration of common cold symptoms: by half

## COc1ccc2cc3[n+](cc2c1OC)CCc1cc2c(cc1-3)OCO2 [berberine]
staphylococci
  activity in vitro against the growth of organisms: active
streptococci
  activity in vitro against the growth of organisms: active
pneumococci
  activity in vitro against the growth of organisms: active
